Results on 41 compounds are retold here after ChEMBL document CHEMBL2311251, “Synthesis and structure-activity relationship of piperidine-derived non-urea soluble epoxide hydrolase inhibitors” (Bioorg Med Chem Lett, 2013).

Series [1] addresses T1, Bifunctional epoxide hydrolase 2 (Homo sapiens, UniProt P34913).
T1 sequence (P34913 whole entry): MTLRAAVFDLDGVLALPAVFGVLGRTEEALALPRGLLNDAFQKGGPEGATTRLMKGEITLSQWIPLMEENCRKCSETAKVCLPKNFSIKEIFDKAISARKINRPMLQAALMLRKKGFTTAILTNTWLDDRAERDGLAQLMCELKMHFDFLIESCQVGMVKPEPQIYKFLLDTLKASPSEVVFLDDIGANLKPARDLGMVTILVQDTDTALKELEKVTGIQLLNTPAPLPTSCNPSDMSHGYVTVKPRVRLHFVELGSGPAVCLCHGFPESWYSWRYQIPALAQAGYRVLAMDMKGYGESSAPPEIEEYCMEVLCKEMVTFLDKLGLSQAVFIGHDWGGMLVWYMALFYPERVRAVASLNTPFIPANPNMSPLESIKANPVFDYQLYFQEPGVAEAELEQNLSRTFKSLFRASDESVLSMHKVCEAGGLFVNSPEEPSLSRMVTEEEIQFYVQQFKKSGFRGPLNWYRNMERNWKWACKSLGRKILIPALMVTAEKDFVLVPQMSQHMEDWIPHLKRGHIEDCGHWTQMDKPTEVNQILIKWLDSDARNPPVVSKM
Briefly: Inhibition of human sEH assessed as 6-methoxy-2-naphthaldehyde generation preincubated for 10 before addition of cyano(2-methyl-oxynaphthalen-6-yl)methyl trans-(3-phenyloxyran-2-yl) methyl carbonate by fluorescence analysis.

A further series concerns Liver microsomes. Put plainly: Half life in human liver microsomes after 90 mins by LC/MS analysis. Format: ADME, Microsome. The following applies: 1.5 h. In general terms: Microsomes from liver hold many membrane-bound enzymes, among them those of drug oxidation.

For `Cc1ccc(S(=O)(=O)N2CCC(C(=O)Nc3ccc4ncccc4c3)CC2)c(C)c1`, the IC50 in series [1] was 13 nM.
On the same count and under the same terms, then `COC(=O)c1ccc2cc(NC(=O)C3CCN(S(=O)(=O)c4ccc(C)cc4C)CC3)ccc2c1`, with 110 nM.
For `Cc1ccc(S(=O)(=O)N2CCC(C(=O)Nc3ccc4c(c3)OCO4)CC2)c(C)c1`, the t1/2 in the series on Liver microsomes is 46 min. Also, in series [1], the IC50 amounted to 5.2 nM.
Regarding `Cc1ccc(S(=O)(=O)N2CCC(C(=O)NC3CC3)CC2)c(C)c1`, the t1/2 in the series on Liver microsomes is listed as 180 min.
With `Cc1ccc(S(=O)(=O)N2CCC(C(=O)NC3CCCc4ccccc43)CC2)c(C)c1` (stereo unspecified), the IC50 in series [1] amounted to 41 nM.
Still for that read-out and setting: then `Cc1ccc(S(=O)(=O)N2CCC(C(=O)Nc3ccccc3)CC2)c(C)c1`, with 6.9 nM; and `Cc1ccc(S(=O)(=O)N2CCC(C(=O)Nc3ccccc3Cl)CC2)c(C)c1`, with 8.7 nM.
The same measure, in the same setting: then `Cc1ccc(S(=O)(=O)N2CCC(C(=O)Nc3ccccc3C)CC2)c(C)c1`, with 20 nM; and `COc1ccc(NC(=O)C2CCN(S(=O)(=O)c3ccc(C)cc3C)CC2)cc1`, with 25 nM.
With `Cc1ccc(S(=O)(=O)N2CCC(C(=O)Nc3ccc(Oc4ccccc4)cc3)CC2)c(C)c1`, the IC50 in series [1] was 20 nM.
Same read-out and setting: then `Cc1ccc(S(=O)(=O)N2CCC(C(=O)Nc3ccc(C(=O)O)cc3)CC2)c(C)c1`, with 17 nM; and `Cc1ccc(S(=O)(=O)N2CCC(C(=O)Nc3ccc([N+](=O)[O-])cc3)CC2)c(C)c1`, with 12 nM.
Same read-out and setting: then `Cc1ccc(S(=O)(=O)N2CCC(C(=O)Nc3ccc(N4CCCCC4)c(C(N)=O)c3)CC2)c(C)c1`, with 43 nM.
`Cc1ccc(S(=O)(=O)N2CCC(C(=O)Nc3ccc(C(C)C)cc3)CC2)c(C)c1`: the t1/2 with Liver microsomes is recorded as 25 min. The IC50 in series [1] was 6.7 nM.
For `Cc1ccc(S(=O)(=O)N2CCC(C(=O)Nc3ccc(S(=O)(=O)C(F)(F)F)cc3)CC2)c(C)c1` the same measures were 36 min and 1.6 nM.
In the case of `Cc1ccc(S(=O)(=O)N2CCC(C(=O)Nc3ccc(F)cc3)CC2)c(C)c1`, in series [1], the IC50 was found to be 290 nM.
Still for that read-out and setting: then `Cc1ccc(S(=O)(=O)N2CCC(C(=O)Nc3ccc(Br)cc3)CC2)c(C)c1`, with 45 nM.
Still for that read-out and setting: then `Cc1ccc(S(=O)(=O)N2CCC(C(=O)Nc3ccc(Cl)c(C(F)(F)F)c3)CC2)c(C)c1`, with 78 nM.
In the series on Liver microsomes, `Cc1ccc(S(=O)(=O)N2CCC(C(=O)Nc3ccc4ccccc4c3)CC2)c(C)c1` gave a t1/2 of 8.7 min. For the same compound, in series [1], the IC50 was found to be 8.3 nM.
For `Cc1ccc(S(=O)(=O)N2CCC(C(=O)Nc3cnc4ccccc4c3)CC2)c(C)c1`, the IC50 in series [1] was found to be 2.3 nM.
For `Cc1ccc(S(=O)(=O)N2CCC(C(=O)Nc3cccc4cnccc34)CC2)c(C)c1`, the t1/2 in the series with Liver microsomes is on record as 220 min. For the same compound, in series [1], the IC50 came to 23 nM.
`Cc1ccc(S(=O)(=O)N2CCC(C(=O)Nc3ccc4cc(C(=O)O)ccc4c3)CC2)c(C)c1` showed a t1/2 in the series with Liver microsomes of 36 min. In addition, the IC50 in series [1] came to 0.6 nM.
Consider `COc1cc2c(cc1NC(=O)C1CCN(S(=O)(=O)c3ccc(C)cc3C)CC1)OCO2`, for which the IC50 in series [1] was 30000 nM.
On the same count and under the same terms, for `Cc1ccc(S(=O)(=O)N2CCC(C(=O)N[C@H]3C[C@@H]3c3ccccc3)CC2)c(C)c1` the value was 6900 nM.
Turning to `Cc1ccc(S(=O)(=O)N2CCC(C(=O)NC3CCCC3)CC2)c(C)c1`, the t1/2 in the series on Liver microsomes is 14 min.
In turn, `Cc1ccc(S(=O)(=O)N2CCC(C(=O)NC34CC5CC(CC(C5)C3)C4)CC2)c(C)c1` had a t1/2 in the series with Liver microsomes of 14 min. For the same compound, the IC50 in series [1] came to 1.7 nM.
For the compound `Cc1ccc(S(=O)(=O)N2CCC(C(=O)Nc3ccccc3F)CC2)c(C)c1`, in series [1], the IC50 is 1.1 nM.
Still for that read-out and setting: for `Cc1ccc(S(=O)(=O)N2CCC(C(=O)Nc3ccccc3Br)CC2)c(C)c1` the value was 0.6 nM.
In the series on Liver microsomes, `Cc1ccc(S(=O)(=O)N2CCC(C(=O)Nc3ccccc3O)CC2)c(C)c1` had a t1/2 of 2.4 min. Further, in series [1], the concentration for half-maximal inhibition (IC50) was found to be 1.2 nM.
For `Cc1ccc(S(=O)(=O)N2CCC(C(=O)Nc3ccc(O)cc3)CC2)c(C)c1`, the IC50 in series [1] amounted to 0.4 nM.
With `COC(=O)c1ccc(NC(=O)C2CCN(S(=O)(=O)c3ccc(C)cc3C)CC2)cc1`, the t1/2 in the series on Liver microsomes stood at 3.7 min. The IC50 in series [1] is 8.5 nM.
Regarding `Cc1ccc(S(=O)(=O)N2CCC(C(=O)Nc3ccc(OC(F)(F)F)cc3)CC2)c(C)c1`, in series [1], the IC50 stood at 23 nM.
The same measure, in the same setting: for `Cc1ccc(S(=O)(=O)N2CCC(C(=O)Nc3ccc(N4CCCCC4)cc3)CC2)c(C)c1` the value was 20 nM; for `Cc1ccc(S(=O)(=O)N2CCC(C(=O)Nc3ccc(N4CCOCC4)cc3)CC2)c(C)c1`, 250 nM; for `Cc1ccc(S(=O)(=O)N2CCC(C(=O)Nc3ccc(C(F)(F)F)cc3)CC2)c(C)c1`, 30 nM.
The same measure, in the same setting: then `Cc1ccc(S(=O)(=O)N2CCC(C(=O)Nc3cccc(C(F)(F)F)c3)CC2)c(C)c1`, with 640 nM; and `Cc1ccc(S(=O)(=O)N2CCC(C(=O)Nc3ccc(Cl)cc3)CC2)c(C)c1`, with 2200 nM; and `Cc1ccc(S(=O)(=O)N2CCC(C(=O)Nc3cc(Cl)cc(Cl)c3)CC2)c(C)c1`, with 25 nM.
Still for that read-out and setting: then `Cc1ccc(S(=O)(=O)N2CCC(C(=O)Nc3ccc(Cl)c(Cl)c3)CC2)c(C)c1`, with 55 nM.
The compound `Cc1ccc(S(=O)(=O)N2CCC(C(=O)Nc3cccc4cccnc34)CC2)c(C)c1` registered a t1/2 with Liver microsomes of 11 min. Besides, the IC50 in series [1] turned out to be 6 nM.
Regarding `Cc1ccc(S(=O)(=O)N2CCC(C(=O)NCC(C)C)CC2)c(C)c1`, the IC50 in series [1] turned out to be 18 nM.

For orientation: IC50 means the concentration that gives 50% inhibition.
